Results from paper PMC8208785, “Therapeutic efficacy of novel memantine nitrate MN‐08 in animal models of Alzheimer’s disease” (Aging Cell, 2021).

What was measured:
APP/PS1 mice = test: behavioral tests (SDA, NOR, MWM), prevention study in APP/PS1 mice; assay type: in vivo; details: 6 mg/kg gastric gavage, ages 2 to 8 months
Protocol: APP/PS1 transgenic mice were purchased from Jackson Laboratory and reproduced in the Shenzhen Center for Disease Control and Prevention (Shenzhen, China). Two‐month‐old APP/PS1 mice were divided into four groups: (1) APP/PS1 + Vehicle group; (2) APP/PS1 + MN‐08 (6 mg/kg) group; (3) APP/PS1 + Memantine (Mem, 5 mg/kg) group; (4) APP/PS1 + Donepezil (Done, 1.3 mg/kg, once daily) group; (5) Two‐month‐old C57BL/6J mice as a control group. The APP/PS1 mice were administered drugs twice a day (Done, once daily) by gastric gavage from ages 2 to 8 months for 6 months successively. Control and vehicle groups received equal volumes of saline.
(§1) The step-down avoidance (SDA) test was performed as previously described (Zhou et al., 2019). During the training phase, mice were singly placed on a metal floor with electrical stimulation (35 V) for 5 min. After 24 hours, the mouse was positioned on a wooden platform, while the metal floor at the bottom delivered an electrical shock (35 V) for another 5 min. The time for the animal to step down from the wooden platform were recorded as the step-down latency to evaluate retention memory.
(§2) Hippocampus-dependent spatial memory was determined by the Morris water maze (MWM) test according to the protocol described in a previous study (Jiao et al., 2015). The MWM test includes a platform training phase and a probe trial phase. An escape platform was placed in a fixed spatial location. During the training phase, each animal was placed at one of four different starting positions and tested four times a day with an interval of approximately 30 min. The animal in the water was immediately removed when it swam to the escape platform within 60 s. […] After the training phase, the probe trial was performed on the sixth day when the platform was removed. The animal was placed in the same starting position in the pool and allowed to move freely for 2 min. The animal swimming track was recorded and analyzed with a digital camera.
(§3) The novel object recognition test was performed to assess non-spatial working memory according to previously published protocols (Choi et al., 2011). Firstly, each animal was sequentially placed into a square box (50 × 50 × 50 cm, length × width × height) without any objects for 10 min per day for 2 continuous days to habituate to the environment. Then, two identical objects were placed parallel near one wall of the square box. Animals were placed singly in the box and allowed to explore the objects for 10 min. […] The time each animal took to examine the familiar object and novel object was recorded by digital camera. The discrimination index was calculated according to the following expression: (novel object (s) - familiar object (s))/ (novel object (s) + familiar object (s)). […]

3×Tg‐AD mice = test: behavioral tests (SDA, NOR, MWM), treatment study in 3×Tg-AD mice; assay type: in vivo; details: 3, 6, and 12 mg/kg, vs vehicle
Protocol: Triple transgenic 3×Tg‐AD mice were acquired from Jackson Laboratory and fostered in the Shenzhen Center for Disease Control and Prevention (Shenzhen, China). Eight‐month‐old 3×Tg‐AD mice were categorized into six groups: (1) 3×Tg‐AD +Vehicle group; (2) 3×Tg‐AD +MN‐08 (3 mg/kg) group; (3) 3×Tg‐AD +MN‐08 (6 mg/kg) group; (4) 3×Tg‐AD +MN‐08 (12 mg/kg) group; (5) 3×Tg‐AD +Memantine (Mem, 5 mg/kg) group; (6) 3×Tg‐AD +Donepezil (Done, 1.3 mg/kg, once daily) group; (7) Eight‐month‐old B6129SF2/J mice as a control group. MN‐08 and memantine were given twice daily (Done, once daily) by gastric gavage for 4 months from 8 months of age.
as §1, §2, §3

normal rats = tested on: normal rats; set-up: method as in Luo et al., 2019; details: ref Luo et al., 2019; cited from earlier work
intact narcotized rats = tested on: intact narcotized rats; set-up: method as in Mirzoyan et al., 2014; details: intact narcotized rats and animals with global transient ischemia; ref Mirzoyan et al., 2014; cited from earlier work

## CCC12CC3CC(N)(C1)CC(CO[N+](=O)[O-])(C3)C2 (stereo not shown) [MN‐08]
APP/PS1 mice
  escape latency in Morris water maze test: markedly shortened
  number of crossings in Morris water maze test: increased
APP/PS1 mice; vs vehicle
  discrimination index in novel object recognition (NOR) test: significantly increased
  latency in step‐down avoidance (SDA) test: significantly increased
3×Tg‐AD mice; 4 months from 8 months of age
  step‐down latency: significant increase
3×Tg‐AD mice; 4 months
  discrimination index (NOR): significant increase
  escape latency time (MWM): significant reduction
  number of crossings (MWM): significant increase
Normal rats
  blood pressure: does not, however, change

## CC12CC3CC(C)(C1)CC(N)(C3)C2 [memantine, 1‐amino‐3,5‐dimethyladamantane]
Intact narcotized rats
  local cerebral blood flow (CBF) in the brain cortices: reduce
